Measurements published in patent US9096643B2, “Cell-protective peptides and uses thereof” (priority 2010, dated 2015).
No end group written: not given here.

Key:
human iPS cells BJ1D = test: iPS colony formation / cloning efficiency after complete dissociation at clonal density; type: cell-based; conditions: 50 μM, trypsinized, clonal density, one week, FIG. 13A
Method: (§1) The human iPS cells (BJ1D and 0901B) were obtained from the Ontario iPSC Facility and used following the hiPS cell research guidelines of the University of Toronto as described by Hotta et al. Nat. Protoc. 4, 1828-1844 (2009)), unless specified otherwise. Cells were cultured on a feeder layer of MEF cells (Mount Sinai Hospital Toronto, inactivated with 10 μg/ml mitomycin C and seeded at 1.8×10^5 per 3.5 cm dish). For single cell cultures, hiPS cell colonies were dissociated in 0.25% Trypsin-EDTA (Invitrogen) for 5 min, followed by trituration with a pipette. To ensure a single-cell suspension, the dissociated cells were passed through a 40 μm cell strainer (BD Falcon) and seeded onto MEF plates at 10 cells/ml, 10 cm plates. Cells were allowed to grow for 7 days and the total number of colonies was counted. In the treated groups, QHREDGS (Biomatik) or DGQESHR (Biomatik) dissolved in PBS (Lonza), were added at the reported concentrations to culture media at the onset of the first treatment passage and replenished with each media change. Media was changed by 100% every day. Peptides and controls were included during dissociation and passaging. Cells were analyzed after 5 passages in continuous treatment with 50 μM QHREDGS, 50 μM DGQESHR, or PBS, unless specified otherwise.
(§2) iPS cells, BJ1D or 0901B were treated with 50 μM of QHREDGS peptide, or 50 μM DGQESHR scrambled peptide in PBS with a PBS treated control for five passages as a preparation for passage by trypsin. Cells were trypsinized and plated at a clonal density of 10 cells/ml for one week and the number of colonies were counted.
(§3) After 5 passages in pre-treatment with 50 μM QHREDGS, or controls and complete dissociation (trypsinized), human iPS cells, BJ1D or 0901B cells, were plated on a mouse embryonic fibroblast (MEF) feeder layer at low density (100 cells/plate, 10 cm plate) in maintenance medium containing 50 μM QHREDGS, PBS, or 50 μM DGQESHR scrambled peptide. After one-week in culture, untreated or DGQESHR (scrambled peptide) treated groups generated few colonies, whereas QHREDGS treated groups for both BJ1D or 0901B cells produced many large colonies (˜15 times more than the controls) (see FIG. 13A/B, respectively). The colonies were positive for Oct4, a marker for the undifferentiated state. The cloning efficiency, based on ratio of Oct4+ colonies formed per initially seeded human iPS cells, was 27+/−7.1% and 2.5+/−0.6% for BJ1D and 48+/−9.4% and 22.3+/−1.9 for 0901B in the presence and absence of QHREDGS, respectively. […] Thus, treatment with QHREDGS supports single-cell culture of human iPS cells through the promotion of colony formation.

human iPS cells 0901B = test: as above; type: cell-based; conditions: 50 μM, trypsinized, clonal density, one week, FIG. 13B
Method: as §1, §2, §3

[1] = tested on: Rat neonatal cardiomyocytes; test: ATP assay (CellTiter-Glo) in serum-starved cardiomyocytes; type: cell-based; conditions: 1 d
Method: Rat neonatal cardiomyocytes were incubated with PBS (control), 500 μM QHREDGS, scrambled QHREDGS peptide, GRGDSP peptide or 400 nM ang 1 or ang2 in DMEM/0.5% BSA/cytosine-β-D-arabinofuranoside (37° C., 5% CO2, 1 d). ATP levels were quantified using the CellTiter-Glo Luminescent Assay (Promega) as per manufacturer's instructions (N=6/group). Luminescence was measured using a Wallac 1420 microplate reader.

[2] = tested on: neonatal rat CMs (heart cells); test: Heart cell attachment on peptide-modified Az-chitosan coated coverslips (brightfield cell counts); type: cell-based, rat (Sprague-Dawley); conditions: coated glass coverslips, 1, 3 and 5 days of incubation, FIG. 1
Method: Neonatal (1 to 2 day-old) Sprague-Dawley rats were euthanized according to the procedure approved by the University of Toronto Committee on Animal Care. […] The supernatant from 5 collagenase digests of the tissues was collected and centrifuged at 750 rpm (94 g) for 4 min, resuspended in culture medium and pre-plated into T75 flasks (Falcon) for 1 hour to separate the non-adherent cells (enriched CMs) from the adherent cells (non-myocytes). The enriched CMs were used in the studies. The CM culture medium consisted of Dulbecco's Modified Eagle Medium (DMEM) with 4.5 g/L glucose, 4 mM L-glutamine, 10% certified fetal bovine serum (FBS), 100 U/mL penicillin, 100 μg/mL streptomycin, and 10 mM 4-2-hydroxyethyl-1-piperazineethanesulfonic acid buffer (HEPES, Gibco/Invitrogen).
The surfaces used for microscopy analysis were created on circular 12 mm diameter glass coverslips (VWR). These were plasma treated (WS-400BZ-6NPP/Lite, Laurell Technologies) for 30 s. […]
The day before cells were ready to be seeded, the surfaces in the 12-well plates were sterilized by germicidal UV illumination overnight. […]
Brightfield images were taken with 10× magnification of surfaces with cells (N=3) to visualize the morphology and cell attachment (IX81, Olympus). […] The number of cells was then counted using the cell counting plug-in on ImageJ (NIH version 1.36b).

[3] = tested on: neonatal rat CMs (heart cells); test: Preliminary 3D cell encapsulation studies in hydrogels; type: cell-based, rat (Sprague-Dawley); conditions: encapsulated, 1 to 4 days of 3D culture
Method: The lyophilized form of the peptide-modified Az-chitosan was dissolved in sterile 0.9% saline at 12 mg/mL. CMs (2.5×10^6) were suspended in 15 μL of CM culture media with 30% serum for 15 minutes on ice. These cells were then suspended in 35 μL of the hydrogel and crosslinked in the transwell inserts of the 96 well plates. The cells were cultivated in the CM culture medium with 10% FBS for up to 4 days.

[4] = tested on: neonatal rat cardiomyocytes; test: Cardiomyocyte encapsulation in chitosan hydrogels, live/dead staining after 6 days; type: cell-based; conditions: peptide conjugated to Az-chitosan hydrogel, in vitro cultivation
Method: The lyophilized form of the peptide-modified Az-chitosan (Az-chitosan-QHREDGS or Az-chitosan-RGDS) was dissolved in sterile 0.9% PBS at 12 mg/mL. Cardiomyocytes (2.5×10^6) were suspended in 15 μL 30% FBS-containing culture medium for 15 min. on ice. These cells were further suspended in 35 μL of the hydrogel. This mixture was placed on a 12 mm diameter glass coverslip, which was placed on a UV lamp (UVP, 365 nm, 1 mW/cm^2 at 3″ distance, 115 V, 60 Hz, 0.16 Amp) and exposed to UV light for 5 min. The samples were then transferred to a 12 well plate and supplemented with 2 mL of warm cardiomyocyte culture media.
Live/dead staining was performed using 5-carboxyfluorescein diacetate acetoxymethly ester, which stains live cells green, and propidium iodide, which stains dead cells red according to the manufacturer's instruction (Invitrogen). Three sets of surfaces were analyzed for each sample type.

[5] = tested on: Rat neonatal cardiomyocytes; test: Hydrogen peroxide treatment, Trypan blue viability (monolayer); type: cell-based; conditions: 200 nM ang 1 1.5 hr, 100 μM H2O2 10 min, FIG. 5A
Method: Rat neonatal cardiomyocytes were incubated for 1.5 hr with 500 μM QHREDGS, scrambled (scram) QHREDGS peptide (DGQESHR), or PBS control (PBS); 200 nM ang 1 or its matched buffer control [0.1% bovine serum albumin (BSA) in PBS] in the culture medium. The culture medium consisted of Dulbecco's Modified Eagle's Medium (DMEM) with 0.5% BSA and cytosine-β-D-arabinofuranoside (anti-proliferative). Reactive oxygen species were increased by addition of 100 μM H2O2 for 10 min (37° C., 5% CO2) (N=6/group). Cell viability was measured using a Trypan blue stain. Trypan blue dye is impermeable to viable cells, but enters dead/damaged cells with impaired membrane integrity, staining cells blue.

## DGQESHR [scrambled QHREDGS peptide control, reference compound]
Human iPS cells BJ1D
  number of colonies: few colonies
Human iPS cells 0901B
  number of colonies: few colonies
[1]; 500 μM peptide
  cardiac myocyte ATP levels: no such effect

## Az-chitosan-DGQESHR: scrambled QHREDGS peptide conjugated to Az-chitosan (also: conjugated to Az-chitosan, site not given here) [reference compound]
[2]
  cell adhesion / cell attachment to coated surface: did not have the same attachment results
[3]
  heart cell survival and elongation in 3D hydrogel: a large number of dead round cells

## QHREDGS (angiopoietin 1 peptide)
[4]
  syncytium formation of encapsulated cardiomyocytes: formation of a dense syncytium

## GRGDSP [RGD-based peptides, reference compound]
[1]; 500 μM peptide
  cardiac myocyte ATP levels: no such effect

B1: Angiopoietin 1 (protein, UniProt Q15389 1-498, looked up)
chain: MTVFLSFAFLAAILTHIGCSNQRRSPENSGRRYNRIQHGQCAYTFILPEHDGNCRESTTDQYNTNALQRDAPHVEPDFSSQKLQHLEHVMENYTQWLQKLENYIVENMKSEMAQIQQNAVQNHTATMLEIGTSLLSQTAEQTRKLTDVETQVLNQTSRLEIQLLENSLSTYKLEKQLLQQTNEILKIHEKNSLLEHKILEMEGKHKEELDTLKEEKENLQGLVTRQTYIIQELEKQLNRATTNNSVLQKQQLELMDTVHNLVNLCTKEGVLLKGGKREEEKPFRDCADVYQAGFNKSGIYTIYINNMPEPKKVFCNMDVNGGGWTVIQHREDGSLDFQRGWKEYKMGFGNPSGEYWLGNEFIFAITSQRQYMLRIELMDWEGNRAYSQYDRFHIGNEKQNYRLYLKGHTGTAGKQSSLILHGADFSTKDADNDNCMCKCALMLTGGWWFDACGPSNLNGMFYTAGQNHGKLNGIKWHYFKGPSYSLRSTTMMIRPLDF
modifications: full-length
notes: full length parent protein of QHREDGS
[5]
  cardiomyocyte viability after exposure to H2O2: maintain cardiomyocyte viability
[1]; 400 nM protein
  cardiac myocyte ATP levels: substantially increased

B2: ang2: ang2 protein comparator in the ATP assay (protein, UniProt O15123 19-496, looked up)
Angiopoietin-2: YNNFRKSMDSIGKKQYQVQHGSCSYTFLLPEMDNCRSSSSPYVSNAVQRDAPLEYDDSVQRLQVLENIMENNTQWLMKLENYIQDNMKKEMVEIQQNAVQNQTAVMIEIGTNLLNQTAEQTRKLTDVEAQVLNQTTRLELQLLEHSLSTNKLEKQILDQTSEINKLQDKNSFLEKKVLAMEDKHIIQLQSIKEEKDQLQVLVSKQNSIIEELEKKIVTATVNNSVLQKQQHDLMETVNNLLTMMSTSNSAKDPTVAKEEQISFRDCAEVFKSGHTTNGIYTLTFPNSTEEIKAYCDMEAGGGGWTIIQRREDGSVDFQRTWKEYKVGFGNPSGEYWLGNEFVSQLTNQQRYVLKIHLKDWEGNEAYSLYEHFYLSSEELNYRIHLKGLTGTAGKISSISQPGNDFSTKDGDNDKCICKCSQMLTGGWWFDACGPSNLNGMYYPQRQNTNKFNGIKWYYWKGSGYSLKATTMMIRPADF
[1]; 400 nM protein
  cardiac myocyte ATP levels: no such effect
